Measurements as given in patent US20240002229A1, “DEVICE FOR ENHANCING REACTION POTENTIAL OF OXIDIZING AGENTS” (Bis Science LLC, priority 2022, published 2024).

How the values were obtained:
Assay type in all cases: cell-based
[1] = tested on: Staphylococcus epidermidis ATCC 12228; assay: Residual effect test on inoculated agar carrier (Table 4)
Experimental: The test substance or PEOA was applied to target which consisted of a microbe inoculated agar plate. The application of the PEOA can be by means such as a dropper, fog, mist or spray or any other acceptable means. […] PEOA was applied to inoculated plates at intervals of 1 minute, 5 minutes, 10 minutes, 30 minutes, 1 hour, 12 hours, 24 hours, 2, days, 5 days, and 7 days after radiation exposure. In one test, after 7 days, the PEOA was again subjected to photon emissions from 0.01 nm to 845 nm for the test labeled reactivation. An additional photon and or phonon exposure similar to the initial enhancement by photon and or phonons of 0.01 nm through 845 nm was the reactivation dose of photons.

E. coli = assay: Microbial reduction by stored photon enhanced solution versus un-exposed hydrogen peroxide; conditions: samples at 4 weeks post exposure to photons; control not exposed
microbial counts = assay: Independent research lab testing, microbial reduction, 5 minute contact time; conditions: 1 part per million, 5 minute contact time with the ambient air
Experimental: A small micron PEOA antimicrobial dry fog is administered into the ambient air through an existing HVAC system and device at a concentration of less than 1 part per million.

For OO [Control, hydrogen peroxide], the CFU/carrier ([1]; Control, time after radiation exposure N/A) was 6.04E+05 CFU/carrier, the CFU/carrier ([1]; applied to carrier 2 Days after radiation exposure) was 3.00E+05 CFU/carrier and the CFU/carrier ([1]; applied to carrier 5 Days after radiation exposure) was 4.50E+04 CFU/carrier. The CFU/carrier ([1]; applied to carrier 7 Days after radiation exposure) was 9.80E+04 CFU/carrier, the CFU/carrier ([1]; applied to carrier 12 Hours after radiation exposure) was 9.20E+04 CFU/carrier and the CFU/carrier ([1]; applied to carrier 24 Hours after radiation exposure) was 1.33E+05 CFU/carrier.
For OO [hydrogen peroxide], the “microbial (E. coli) reduction” value (E. coli) was 23.08%.
OO [standard hydrogen peroxide, hydrogen peroxide] was tested, and the microbial reduction (microbial counts) was “little or no microbial reduction”.
